Experiments:
[1] = pH reduction of an environment by bacterial strain (Table 1, (b)); conditions: capable of reducing the pH of an environment from 7.5 or higher to less than 7.5
Text: (§1) Exemplary bacterial strains determined to be capable of (b) reducing the pH of an environment from 7.5 or higher to less than 7.5; (c) reducing the abundance of one or more VSCs in an environment having a pH of less than 7.5; and/or (d) enhances the reduction of one or more VSCs by another bacterial strain in an environment with a pH of 7.5 or higher, are listed below in Table 1.

[2] = system: volatile sulfur compounds (VSCs); test: VSC reduction in an environment having a pH of less than 7.5 (Table 1, (c)); conditions: capable of reducing the abundance of one or more VSCs in an environment having a pH of less than 7.5
Text: as §1
Some bacterial strains of compositions, nutritional supplements, dental supplements, and food products were identified based on the ability to reduce the abundance of volatile sulfur compounds (VSCs) in an environment, and/or inhibit the production of VSCs by other microorganisms in the environment. VSCs are associated with the unpleasant odor of breath of subjects with halitosis, and reduction in VSC abundance (e.g., by VSC metabolism or inhibition of VSC production) is expected to alleviate this symptom of halitosis. Non-limiting examples of such VSCs include hydrogen sulfide, methyl mercaptan, and dimethyl sulfide, all of which give off strong and unpleasant odors.

| Substance | (b) pH reduction [1] | (c) VSC reduction [2] |
| --- | --- | --- |
| Bifidobacterium longum | Yes | – |
| Lactobacillus acidophilus | Yes | Yes |
| Pediococcus acidilactici | Yes | Yes |

From patent US12576115B2, “Bacterial compositions for treating and preventing halitosis” (Imvela Corp., priority 2023, dated 2026)
